The nature of series [1]: in vivo. The conditions noted are these: Sprague-Dawley, rat, iv, 1 mg/kg.
The nature of series [2]: in vitro. Particulars: human, liver microsomes.
Series [3] is described as follows: in vitro. Particulars: dog, MDCK.
Series [4] in a line: in vivo. The conditions noted are these: Sprague-Dawley, rat, iv, 1 mg/kg. This is another data set of the same source.
The nature of series [5]: in vivo. Particulars: C57BL/6, mouse, po, 10 mg/kg.
Series [6] has as its target T1, Voltage-gated inwardly rectifying potassium channel KCNH2 (Homo sapiens, UniProt Q12809).
Series [7] in a line: physchem. Particulars: octanol/water, pH 7.4.
Series [8] in a line: physchem.
Series [9] is described as follows: in vitro. Particulars: rat, liver microsomes.
The nature of series [10]: in vivo. Particulars: C57BL/6, mouse, po, 10 mg/kg. This is another data set of the same source.
Series [11] concerns the target T1, Voltage-gated inwardly rectifying potassium channel KCNH2. This is another data set of the same source.
Series [12] is described as follows: in vivo. The conditions noted are these: Sprague-Dawley, rat, iv, 1 mg/kg. The source holds these as a separate data set.
A short description of series [13]: in vivo. The conditions noted are these: Sprague-Dawley, rat, iv, 1 mg/kg. The source holds these as a separate data set.
Series [14] can be described thus: in vitro. Particulars: mouse, liver microsomes.
Series [15] can be described thus: physchem. The conditions noted are these: buffer, pH 6.8.
Series [16] in a line: in vivo. The conditions noted are these: Sprague-Dawley, rat, po, 3 mg/kg.
Series [17] can be described thus: in vivo. The conditions noted are these: Sprague-Dawley, rat, iv, 1 mg/kg. This is another data set of the same source.
Series [18] can be described thus: in vivo. The conditions noted are these: Sprague-Dawley, rat, iv, 1 mg/kg. This is another data set of the same source.
Series [19] has as its target T1, Voltage-gated inwardly rectifying potassium channel KCNH2. This is another data set of the same source.
The nature of series [20]: Inhibition of calcium ionophore A23187-stimulated LTB4 release in C57BL/6 mouse model at 10 mg/kg, po bid measured after 2 hrs. In kind it is functional.
Series [21] deals with T2, Leukotriene A-4 hydrolase (Homo sapiens, UniProt P09960).
T2 sequence (P09960 whole entry): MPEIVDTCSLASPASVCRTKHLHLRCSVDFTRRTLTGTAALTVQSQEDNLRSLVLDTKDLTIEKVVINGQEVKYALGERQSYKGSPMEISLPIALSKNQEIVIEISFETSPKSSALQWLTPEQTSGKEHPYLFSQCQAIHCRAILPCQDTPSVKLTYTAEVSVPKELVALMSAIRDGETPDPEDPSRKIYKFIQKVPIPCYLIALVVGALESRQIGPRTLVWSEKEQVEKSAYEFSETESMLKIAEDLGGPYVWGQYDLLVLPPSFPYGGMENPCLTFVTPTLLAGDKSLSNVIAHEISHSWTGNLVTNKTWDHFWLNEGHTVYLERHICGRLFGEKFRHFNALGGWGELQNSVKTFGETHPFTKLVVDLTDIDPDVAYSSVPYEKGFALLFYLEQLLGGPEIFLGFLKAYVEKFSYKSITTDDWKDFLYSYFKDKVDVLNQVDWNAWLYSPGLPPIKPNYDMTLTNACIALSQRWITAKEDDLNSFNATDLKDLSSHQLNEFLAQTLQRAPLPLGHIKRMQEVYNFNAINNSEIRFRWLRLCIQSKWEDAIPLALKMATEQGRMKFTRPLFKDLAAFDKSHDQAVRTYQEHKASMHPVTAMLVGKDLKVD
In words: Inhibition of LTA4H in human blood assessed as LTB4 production. In kind it is tissue-based.

The target of series [22] is T2, Leukotriene A-4 hydrolase. As to the kind of experiment: Inhibition of LTA4H (unknown origin).

Converted amounts (≈) assume the structure as drawn.

T1 sequence (Q12809 whole entry): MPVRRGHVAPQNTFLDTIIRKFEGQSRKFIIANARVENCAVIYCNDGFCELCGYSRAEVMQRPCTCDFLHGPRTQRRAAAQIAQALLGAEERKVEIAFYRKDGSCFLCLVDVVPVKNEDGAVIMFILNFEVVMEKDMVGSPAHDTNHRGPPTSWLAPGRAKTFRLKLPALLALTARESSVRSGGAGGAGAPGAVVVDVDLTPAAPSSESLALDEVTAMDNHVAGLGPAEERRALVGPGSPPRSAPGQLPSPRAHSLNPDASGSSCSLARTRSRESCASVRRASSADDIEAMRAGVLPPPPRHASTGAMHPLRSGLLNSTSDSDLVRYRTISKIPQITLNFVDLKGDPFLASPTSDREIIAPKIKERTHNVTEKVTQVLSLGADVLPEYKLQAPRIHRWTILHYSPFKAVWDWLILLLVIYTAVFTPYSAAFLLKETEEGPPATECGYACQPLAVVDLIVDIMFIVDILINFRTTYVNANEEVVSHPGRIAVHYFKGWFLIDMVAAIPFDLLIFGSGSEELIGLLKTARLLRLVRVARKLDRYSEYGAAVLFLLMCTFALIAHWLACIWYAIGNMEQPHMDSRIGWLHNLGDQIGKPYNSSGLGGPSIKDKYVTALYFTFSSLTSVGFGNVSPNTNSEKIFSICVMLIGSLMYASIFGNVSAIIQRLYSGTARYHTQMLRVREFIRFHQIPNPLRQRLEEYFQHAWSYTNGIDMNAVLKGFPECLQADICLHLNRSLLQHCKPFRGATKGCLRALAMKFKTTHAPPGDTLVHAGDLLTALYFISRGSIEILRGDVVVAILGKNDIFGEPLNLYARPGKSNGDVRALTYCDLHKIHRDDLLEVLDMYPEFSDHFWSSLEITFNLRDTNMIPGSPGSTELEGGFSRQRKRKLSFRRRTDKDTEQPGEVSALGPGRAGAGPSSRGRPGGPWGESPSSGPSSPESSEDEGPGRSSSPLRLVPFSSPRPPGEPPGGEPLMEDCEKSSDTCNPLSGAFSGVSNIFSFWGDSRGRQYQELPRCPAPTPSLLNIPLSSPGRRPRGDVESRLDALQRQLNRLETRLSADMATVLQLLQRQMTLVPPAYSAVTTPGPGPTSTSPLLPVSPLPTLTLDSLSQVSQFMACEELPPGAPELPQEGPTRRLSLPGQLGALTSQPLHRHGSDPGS

With `N[C@H](CO)Cn1nnc(-c2ccc(Oc3ncc(Cl)cc3F)cc2)n1`, the Cmax in the series “in vivo [1]” was 1300 nM. Moreover, the microsomal CLint in “in vitro [2]”, in the series “in vitro [9]” and in the series “in vitro [14]” was < 25 µL/min/mg in each case. For the same compound, the Papp A→B in the series “in vitro [3]” was 28 ×10⁻⁶ cm/s. In addition, the clearance in the series “in vivo [4]” was 9 mL/min/kg. The concentration at 24 h in the series “in vivo [5]” (blood) is 134 nM; in the series “in vivo [18]”, 52 nM. Also, the IC50 in [6] is > 30 µM; in series [11] it was 30 µM; in series [19] it was 28 µM. For the same compound, in the series “physchem [7]”, the log distribution coefficient (logD) came to 2.3. In addition, the pKa in the series “physchem [8]” came to 7.1. This compound also returned a concentration at 2 h in the series “in vivo [10]” (blood) of 2980 nM. In “in vivo [12]”, the mean residence time (MRT) worked out at 5.3 h. This compound displayed a bioavailability in the series “in vivo [13]” of 100%. In addition, in “physchem [15]”, the solubility is > 1000 µM. In the series “in vivo [16]”, this compound came in with a total exposure AUC(0-inf) of 14.7 µM·h. The compound further came in with a Vd in “in vivo [17]” of 3 L/kg.
In the case of `N[C@@H](CC(=O)O)Cn1nnc(-c2ccc(Oc3ncc(Cl)cc3F)cc2)n1`, the intrinsic metabolic clearance (microsomal CLint) in “in vitro [2]”, in “in vitro [9]” and in the series “in vitro [14]” was < 25 µL/min/mg throughout. Moreover, the Papp A→B in the series “in vitro [3]” is 1.8 ×10⁻⁶ cm/s. For the same compound, in series [20], the inhibition in vivo at 10 mg/kg was 97%. This compound also showed a concentration at 24 h in “in vivo [5]” (in vivo) of 184 nM. In the series “physchem [7]”, this compound registered a logD of 0.5. The compound further displayed a concentration at 2 h in “in vivo [10]” (in vivo) of 1290 nM. Moreover, the solubility in the series “physchem [15]” was determined as 620 µM (≈ 244 µg/mL).
For `N[C@@H](CCO)Cn1nnc(-c2ccc(Oc3ncc(Cl)cc3F)cc2)n1`, in “in vitro [3]”, the Papp A→B stood at 23 ×10⁻⁶ cm/s.
In “in vivo [1]”, `N[C@H](CO)Cc1nc(-c2ccc(Oc3ccc(-c4cc[nH]n4)cn3)cc2)no1` registered a Cmax of 403 nM. Moreover, the values for the microsomal CLint in “in vitro [2]”, in the series “in vitro [9]” and in the series “in vitro [14]” were < 25 µL/min/mg, < 25 µL/min/mg and 29 µL/min/mg, respectively. In the series “in vitro [3]”, this compound gave a Papp A→B of 9 ×10⁻⁶ cm/s. Besides, the clearance in “in vivo [4]” was found to be 16 mL/min/kg. The concentration at 24 h is 116 nM in the series “in vivo [5]” (blood) and 23 nM in “in vivo [18]”. The 50% inhibitory concentration (IC50) in [6] is > 30 µM; in series [11] it was > 30 µM; in series [19] it was > 100 µM. The pH-dependent lipophilicity (logD) in the series “physchem [7]” came to 1.8. In the series “in vivo [10]” (blood), this compound yielded a concentration at 2 h of 800 nM. For the same compound, the mean residence time MRT in the series “in vivo [12]” is 23 h. Also, in the series “in vivo [13]”, the bioavailability stood at 49%. Moreover, in the series “physchem [15]”, the solubility turned out to be 870 µM (≈ 329 µg/mL). The compound also came in with a total exposure AUC(0-inf) in “in vivo [16]” of 4.2 µM·h. For the same compound, in “in vivo [17]”, the Vd worked out at 21 L/kg.
Turning to `N[C@@H](CO)Cn1nnc(-c2ccc(Oc3ncc(Cl)cc3F)cc2)n1`, the Cmax in “in vivo [1]” stood at 42 nM. In addition, the microsomal CLint in “in vitro [2]”, in the series “in vitro [9]” and in “in vitro [14]” was < 25 µL/min/mg throughout. This compound also gave an apical-to-basolateral permeability (Papp A→B) in “in vitro [3]” of 25 ×10⁻⁶ cm/s. This compound had a clearance in “in vivo [4]” of 134 mL/min/kg. Also, the IC50 in [6] and in series [11] was > 30 µM each time. Further, in the series “physchem [7]”, the logD is 2.3. Besides, the pKa in “physchem [8]” is 7.1. Further, in the series “in vivo [12]”, the MRT was determined as 4.5 h. In the series “in vivo [13]”, the bioavailability was 37%. In the series “physchem [15]”, the concentration in solution (solubility) came to 520 µM (≈ 190 µg/mL). The same compound had an AUC(0-inf) in “in vivo [16]” of 0.369 µM·h. In the series “in vivo [17]”, the volume of distribution (Vd) was determined as 36 L/kg. The compound also had a concentration at 24 h in the series “in vivo [18]” of 2 nM.
Turning to `O=C(O)c1ccc(CN2C[C@@H]3C[C@H]2CN3Cc2ccc(Oc3ccc(-c4ncco4)cc3)cc2)cc1` [ACEBILUSTAT], the half-inhibitory concentration (IC50) was found to be 0.135 µM in series [21] and 0.003 µM in series [22].
As for `N[C@H](CCO)Cn1nnc(-c2ccc(Oc3ncc(Cl)cc3F)cc2)n1`, the microsomal CLint was found to be 40 µL/min/mg in the series “in vitro [2]”, 94 µL/min/mg in “in vitro [9]” and 145 µL/min/mg in “in vitro [14]”. In addition, the Papp A→B in “in vitro [3]” amounted to 21 ×10⁻⁶ cm/s. For the same compound, the half-maximal inhibitory concentration (IC50) in series [6] is > 30 µM. Also, in “physchem [7]”, the logD is 2.4. The same compound came in with a solubility in the series “physchem [15]” of 580 µM (≈ 220 µg/mL).
Consider `Cc1ccc(Oc2ccc(-c3nnn(CCN)n3)cc2)cc1`, for which the values for the intrinsic clearance (microsomal CLint) in the series “in vitro [2]”, in “in vitro [9]” and in “in vitro [14]” were 396 µL/min/mg, 266 µL/min/mg and 246 µL/min/mg, respectively. The apical-to-basolateral permeability (Papp A→B) in “in vitro [3]” came out at 34 ×10⁻⁶ cm/s. In series [6], the half-inhibitory concentration (IC50) turned out to be 6 µM. Also, the log distribution coefficient (logD) in “physchem [7]” worked out at 3. In addition, in the series “physchem [15]”, the concentration in solution (solubility) was 30 µM (≈ 8.86 µg/mL).
`CC(=O)N[C@H]1C[C@H]2CC[C@@H](C1)N2Cc1ccc(Oc2nc3ncccc3s2)cc1`: the half-inhibitory concentration (IC50) in [21] was determined as 0.042 µM; in series [22] it was 0.003 µM.

(Values after ChEMBL document CHEMBL5375967 (J Med Chem, 2023).)
